From the Biogen ADME set (Fang et al. 2023) come the findings set out here.

For this data set the following is noted: for aqueous solubility: pH 6.8.

The term aqueous solubility denotes the dissolved amount per volume that the medium holds.

≈ marks a conversion by molar mass, not a printed value.

As for `O=C1CC2(CCN(C(=O)NCc3ccccc3)CC2)Oc2ccccc21`, the MDR1-MDCK efflux ratio was found to be 3.06; the intrinsic clearance, human liver microsomes was found to be 1.3 L/h/kg; the intrinsic clearance, rat liver microsomes stood at 37.1 L/h/kg; the aqueous solubility is 0.00413 mg/mL (≈ 11.8 µM).

Take `FC(F)(F)c1nc(Nc2ccc(-n3cnnn3)cc2)c2ccccc2n1`: the MDR1-MDCK efflux ratio was 1.13; the intrinsic clearance, human liver microsomes was not above 0.284 L/h/kg; the intrinsic clearance, rat liver microsomes is not above 0.64 L/h/kg; the aqueous solubility is 0.00115 mg/mL (≈ 3.22 µM).

Take `CCc1nnc(N2CCCO2)c(C#N)c1CC`: the MDR1-MDCK efflux ratio came to 0.746; the intrinsic clearance, human liver microsomes came out at 0.998 L/h/kg; the intrinsic clearance, rat liver microsomes is 8.81 L/h/kg.

`CC1=C(C(=O)OCc2ccc3c(c2)OCO3)C(c2ccccc2)NC(=O)N1` (stereo not drawn): the aqueous solubility is 0.00187 mg/mL (≈ 5.12 µM).

`O=C(C1CCCN(c2cnccn2)C1)N1CCc2ccccc2C1` (stereo not drawn) gave an intrinsic clearance, human liver microsomes of 16.4 L/h/kg; an intrinsic clearance, rat liver microsomes of 270 L/h/kg; an aqueous solubility of 0.0532 mg/mL (≈ 165 µM).

As for `Cc1noc(OCC(=O)N2CCCCCC2)n1`, the MDR1-MDCK efflux ratio was found to be 1.01; the intrinsic clearance, human liver microsomes is not above 0.284 L/h/kg; the intrinsic clearance, rat liver microsomes is not above 0.64 L/h/kg; the aqueous solubility was 0.0502 mg/mL (≈ 210 µM).

As to `CSc1ccc(CN(CCO)C(=O)CCc2cccc(F)c2)cc1`, the MDR1-MDCK efflux ratio is 0.961; the intrinsic clearance, human liver microsomes was determined as 9.05 L/h/kg; the intrinsic clearance, rat liver microsomes came to 151 L/h/kg; the aqueous solubility was determined as 0.0291 mg/mL (≈ 83.6 µM).

Consider `O=C(Cc1csc(-c2ccccn2)n1)NC1CCCCCC1`, for which the MDR1-MDCK efflux ratio is 0.945; the intrinsic clearance, human liver microsomes is 5.22 L/h/kg; the intrinsic clearance, rat liver microsomes is 137 L/h/kg; the aqueous solubility amounted to 0.0114 mg/mL (≈ 36.2 µM).

Regarding `c1ccc(-c2ncc(CNc3ncccn3)s2)nc1`, the MDR1-MDCK efflux ratio turned out to be 0.641; the intrinsic clearance, human liver microsomes is 2.43 L/h/kg; the intrinsic clearance, rat liver microsomes is 124 L/h/kg.

Regarding `Cn1cc(-c2ccc3nnc(C(F)(F)c4ccc5ncccc5c4)n3n2)cn1`, the MDR1-MDCK efflux ratio is 9.46; the intrinsic clearance, human liver microsomes was not above 0.284 L/h/kg; the intrinsic clearance, rat liver microsomes was 3.55 L/h/kg; the aqueous solubility stood at 0.043 mg/mL (≈ 114 µM).

With `CN1C(=O)COc2ccc(NC(=O)CCN3C(=O)COc4ccc(Cl)cc43)cc21`, the MDR1-MDCK efflux ratio came to 9.31; the intrinsic clearance, human liver microsomes turned out to be 9.32 L/h/kg; the intrinsic clearance, rat liver microsomes came to 69.9 L/h/kg; the aqueous solubility came out at 0.0015 mg/mL (≈ 3.61 µM).

For the molecule `NS(=O)(=O)N1CCN(Cc2c(F)cccc2N2CCCC2)CC1`, the MDR1-MDCK efflux ratio came out at 1.75; the intrinsic clearance, human liver microsomes was 1.45 L/h/kg; the intrinsic clearance, rat liver microsomes came to 77.1 L/h/kg.

As for `COc1cccc(Cn2cnc3c(c2=O)COCC3)c1Cl`, the MDR1-MDCK efflux ratio is 0.9; the intrinsic clearance, human liver microsomes stood at 0.343 L/h/kg; the intrinsic clearance, rat liver microsomes was determined as 8.28 L/h/kg.

The molecule `COc1cc(CN(C)C(=O)Nc2cccc(C)c2C)ccc1O` registered an intrinsic clearance, human liver microsomes of 0.927 L/h/kg; an intrinsic clearance, rat liver microsomes of 8.2 L/h/kg; an aqueous solubility of 0.0518 mg/mL (≈ 165 µM).

In the case of `Cc1ccc(S(=O)(=O)Cc2nc(-c3ccc(C(=O)NCc4cccnc4)cc3)oc2C)cc1`, the MDR1-MDCK efflux ratio is 56.4 and the aqueous solubility came out at 0.00033 mg/mL (≈ 0.715 µM).

As to `CN(Cc1nc(N)c2ccccc2n1)Cc1ccc(F)cc1F`, the MDR1-MDCK efflux ratio worked out at 3.49; the intrinsic clearance, human liver microsomes turned out to be 3.24 L/h/kg; the intrinsic clearance, rat liver microsomes was 118 L/h/kg; the aqueous solubility was 0.0431 mg/mL (≈ 137 µM).

On to `COc1cc2c(cc1OC)CN(C(=O)C1CCCN(C(=O)OC(C)(C)C)C1)CC2` (stereo not drawn), for which the MDR1-MDCK efflux ratio was determined as 1.79; the intrinsic clearance, human liver microsomes amounted to 6.35 L/h/kg; the intrinsic clearance, rat liver microsomes worked out at 38.6 L/h/kg; the aqueous solubility was determined as 0.0619 mg/mL (≈ 153 µM).

`CC(C)Cc1ccc(-c2nc(-c3ccc(CN4CC(C(=O)O)C4)cc3)no2)cc1` gave an intrinsic clearance, human liver microsomes of 0.456 L/h/kg and an intrinsic clearance, rat liver microsomes of 1.02 L/h/kg.

For `Cc1c(NC(=O)c2cc(C(N)=O)nc3cc(F)ccc23)c(C(F)(F)F)nn1Cc1ccc(C#N)cc1`, the MDR1-MDCK efflux ratio is 82.1 and the aqueous solubility worked out at 0.00018 mg/mL (≈ 0.363 µM).

Take `O=S(=O)(Nc1cccc(-c2nc3ccccc3[nH]2)c1)c1ccc(Cl)cc1`: the MDR1-MDCK efflux ratio came to 10.7; the intrinsic clearance, human liver microsomes is 1.2 L/h/kg; the intrinsic clearance, rat liver microsomes came out at 177 L/h/kg; the aqueous solubility stood at 0.00489 mg/mL (≈ 12.7 µM).

`COc1ncccc1NC(=O)c1cccc(C)n1` returned an intrinsic clearance, human liver microsomes of 9 L/h/kg; an intrinsic clearance, rat liver microsomes of 11 L/h/kg; an aqueous solubility of 0.0239 mg/mL (≈ 98.2 µM).

Consider `Cc1cc(C)c(-c2csc(NC(=O)Cn3cnnn3)n2)c(C)c1`, for which the MDR1-MDCK efflux ratio was determined as 7.69 and the aqueous solubility came out at 0.00012 mg/mL (≈ 0.365 µM).

Turning to `O=C(CCCc1nnc(-c2ccccc2)o1)Nc1cccc2ccccc12`, the MDR1-MDCK efflux ratio came out at 0.976; the intrinsic clearance, human liver microsomes turned out to be 4.3 L/h/kg; the intrinsic clearance, rat liver microsomes stood at 69.1 L/h/kg; the aqueous solubility is 0.00131 mg/mL (≈ 3.67 µM).

The molecule `Cc1cc(C(=O)NCC2(c3ccccc3)CC2)on1` displayed an intrinsic clearance, human liver microsomes not above 0.284 L/h/kg; an intrinsic clearance, rat liver microsomes of 6.54 L/h/kg; an aqueous solubility of 0.0401 mg/mL (≈ 157 µM).

On to `CCc1nc(CN2CCC(=O)Nc3cc(F)ccc32)n[nH]1`, for which the MDR1-MDCK efflux ratio was 14.7; the intrinsic clearance, human liver microsomes is not above 0.284 L/h/kg; the intrinsic clearance, rat liver microsomes came to 0.968 L/h/kg.

Turning to `Fc1ccccc1CNc1nc(-c2ccccc2)no1`, the MDR1-MDCK efflux ratio worked out at 0.605; the intrinsic clearance, human liver microsomes turned out to be 1.47 L/h/kg; the intrinsic clearance, rat liver microsomes was found to be 7.88 L/h/kg; the aqueous solubility stood at 0.00351 mg/mL (≈ 13 µM).

`CCN(CC)Cc1cnc(NC(=O)c2ccccc2)s1` displayed an intrinsic clearance, human liver microsomes not above 0.284 L/h/kg and an intrinsic clearance, rat liver microsomes of 11.5 L/h/kg.

Regarding `CCCc1cc(N2CCc3c(nc(C(C)C)n3C)C2)n2ncnc2n1`, the MDR1-MDCK efflux ratio was determined as 15.2; the intrinsic clearance, human liver microsomes was determined as 0.858 L/h/kg; the intrinsic clearance, rat liver microsomes came out at 11 L/h/kg; the aqueous solubility was found to be 0.0564 mg/mL (≈ 166 µM).

For `COCCc1n[nH]c(-c2ccc(N3CCN(C)CC3)cc2)n1`, the MDR1-MDCK efflux ratio was determined as 7.53; the intrinsic clearance, human liver microsomes is not above 0.284 L/h/kg; the intrinsic clearance, rat liver microsomes came out at 3 L/h/kg.

Take `Cc1nccc(C2CCN(Cc3ncc[nH]3)CC2)n1`: the MDR1-MDCK efflux ratio stood at 25.7; the intrinsic clearance, human liver microsomes was not above 0.284 L/h/kg; the intrinsic clearance, rat liver microsomes turned out to be 1.74 L/h/kg; the aqueous solubility is 0.0804 mg/mL (≈ 313 µM).

For `Cc1cccc2cnc(C3CCN(C(=O)CCc4ccno4)CC3)cc12`, the intrinsic clearance, human liver microsomes was 1.87 L/h/kg and the intrinsic clearance, rat liver microsomes amounted to 43.7 L/h/kg.

As for `CCOc1cccc(CNCCc2c[nH]c3ccccc23)c1`, the MDR1-MDCK efflux ratio was 0.628; the intrinsic clearance, human liver microsomes was 5.45 L/h/kg; the intrinsic clearance, rat liver microsomes was 79.6 L/h/kg; the aqueous solubility was determined as 0.073 mg/mL (≈ 248 µM).

As to `Cc1ccc(-c2ccc(-c3nccn3CCCn3cnnc3)o2)cc1`, the MDR1-MDCK efflux ratio is 123; the intrinsic clearance, human liver microsomes worked out at 0.942 L/h/kg; the intrinsic clearance, rat liver microsomes came to 32.4 L/h/kg; the aqueous solubility worked out at 0.0368 mg/mL (≈ 110 µM).

`COCC(=O)Nc1ccc(NC(=O)Cc2ccc(C(F)(F)F)cc2)cc1`: the MDR1-MDCK efflux ratio came to 1.08; the intrinsic clearance, human liver microsomes came to 1.97 L/h/kg; the intrinsic clearance, rat liver microsomes was 5.34 L/h/kg.

On to `CCN(C(=O)N1CCC(OC2CCOCC2)CC1)C(C)C`, for which the MDR1-MDCK efflux ratio was 0.763; the intrinsic clearance, human liver microsomes is 1.3 L/h/kg; the intrinsic clearance, rat liver microsomes was 9.29 L/h/kg; the aqueous solubility was 0.0561 mg/mL (≈ 188 µM).

Consider `CNc1nc(C2CCNCC2)nc2c1CN(C)CC2`, for which the intrinsic clearance, human liver microsomes turned out to be 0.571 L/h/kg; the intrinsic clearance, rat liver microsomes was determined as 1.75 L/h/kg; the aqueous solubility turned out to be 0.0362 mg/mL (≈ 139 µM).

As for `CCN(Cc1cnn(C(C)C)c1)C(=O)NCCC(C)(C)OC`, the MDR1-MDCK efflux ratio was 17.2; the intrinsic clearance, human liver microsomes is 0.339 L/h/kg; the intrinsic clearance, rat liver microsomes stood at 9.76 L/h/kg.

`Cc1ccccc1NC(=O)CN1C(=O)CCC1=O` gave an intrinsic clearance, human liver microsomes not above 0.284 L/h/kg; an intrinsic clearance, rat liver microsomes not above 0.64 L/h/kg; an aqueous solubility of 0.0363 mg/mL (≈ 147 µM).

`N#Cc1cccc(CN2CCN(CCO)CC2)c1` gave an intrinsic clearance, human liver microsomes of 0.377 L/h/kg; an intrinsic clearance, rat liver microsomes of 7.56 L/h/kg; an aqueous solubility of 0.0293 mg/mL (≈ 119 µM).

For `N#CC1(C(=O)NCC2(C3CC3)CC2)CCCCC1`, the MDR1-MDCK efflux ratio came out at 0.713; the intrinsic clearance, human liver microsomes came to 1.13 L/h/kg; the intrinsic clearance, rat liver microsomes is 65 L/h/kg.

On to `O=C(C1CCC1)N1CCC[C@H]1Cn1nnc(-c2cccs2)n1`, for which the MDR1-MDCK efflux ratio worked out at 0.712 and the intrinsic clearance, rat liver microsomes is 285 L/h/kg.

As to `COc1cccc(C(=O)N(C)CC(F)(F)F)c1OCCCN`, the MDR1-MDCK efflux ratio stood at 30.1; the intrinsic clearance, human liver microsomes is not above 0.284 L/h/kg; the intrinsic clearance, rat liver microsomes was determined as 4.92 L/h/kg.

As to `CC(C)OC(=O)N1CCC(Oc2ncnc3c2cnn3-c2ccc(S(C)(=O)=O)cc2F)CC1`, the MDR1-MDCK efflux ratio is 1.61.

For the molecule `CN(C)c1cc(CNC(=O)C2CCOCC2)ccn1`, the MDR1-MDCK efflux ratio was 4.87; the intrinsic clearance, human liver microsomes was not above 0.284 L/h/kg; the intrinsic clearance, rat liver microsomes was not above 0.64 L/h/kg; the aqueous solubility was 0.0412 mg/mL (≈ 156 µM).

For `CCOc1ccc(Nc2nc(-c3c(C)nc4ccccn34)cs2)cc1`, the MDR1-MDCK efflux ratio is 0.134; the intrinsic clearance, human liver microsomes is 9.56 L/h/kg; the intrinsic clearance, rat liver microsomes was 27.1 L/h/kg; the aqueous solubility worked out at 0.045 mg/mL (≈ 128 µM).

With `CC(C)(C)n1cc(CNc2cccnc2)cn1`, the MDR1-MDCK efflux ratio is 0.564; the intrinsic clearance, human liver microsomes was not above 0.284 L/h/kg; the intrinsic clearance, rat liver microsomes stood at 2.5 L/h/kg; the aqueous solubility stood at 0.0255 mg/mL (≈ 111 µM).

`CNC(=O)Cn1ccc2cc(OC)ccc21`: the MDR1-MDCK efflux ratio came to 0.664; the intrinsic clearance, human liver microsomes was not above 0.284 L/h/kg; the intrinsic clearance, rat liver microsomes came to 6 L/h/kg; the aqueous solubility was determined as 0.0399 mg/mL (≈ 183 µM).

`Cc1nccc(-c2cccc(NCC(=O)Nc3ccc(F)cc3)c2)n1` came in with an intrinsic clearance, human liver microsomes of 2.35 L/h/kg and an intrinsic clearance, rat liver microsomes of 18.2 L/h/kg.
